In article PMC5122590, “Identification of a Dolabellane Type Diterpene Synthase and other Root-Expressed Diterpene Synthases in Arabidopsis” (Frontiers in Plant Science, 2016):

Key:
[1] = biological target: T1, TPS25 (Arabidopsis thaliana, UniProt Q9LIA1); assay: in vitro assay, SPME-GC-MS; type: biochemical; conditions: main product (E)-beta-farnesene
T1 construct: N-terminal 25 aa (transit peptide) removed; TOPO-pET102; E. coli; partially purified
T1 sequence (Q9LIA1 26-603): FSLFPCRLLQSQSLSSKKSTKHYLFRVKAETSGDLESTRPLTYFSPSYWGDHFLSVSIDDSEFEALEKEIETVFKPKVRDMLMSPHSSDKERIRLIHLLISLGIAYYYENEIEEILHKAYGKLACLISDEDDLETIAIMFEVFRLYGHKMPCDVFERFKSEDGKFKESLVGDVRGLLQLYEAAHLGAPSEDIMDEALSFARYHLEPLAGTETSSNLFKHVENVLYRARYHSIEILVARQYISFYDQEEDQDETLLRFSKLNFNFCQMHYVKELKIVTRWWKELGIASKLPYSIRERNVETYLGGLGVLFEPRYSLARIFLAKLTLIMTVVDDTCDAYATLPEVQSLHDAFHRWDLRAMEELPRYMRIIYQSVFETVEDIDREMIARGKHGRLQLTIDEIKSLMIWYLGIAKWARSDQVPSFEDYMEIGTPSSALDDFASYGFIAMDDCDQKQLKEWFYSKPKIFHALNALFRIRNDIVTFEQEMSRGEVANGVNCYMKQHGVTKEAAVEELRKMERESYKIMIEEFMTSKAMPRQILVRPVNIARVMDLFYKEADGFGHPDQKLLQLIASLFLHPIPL

[2] = biological target: T2, TPS26 (Arabidopsis thaliana, UniProt Q9C8E3); assay: E. coli coexpression with (E,E)-FPP synthase, GC-MS; type: cell-based; conditions: trace alpha-humulene and (E)-beta-farnesene formed
T2 construct: N-terminal 38 aa removed; pET28a; RIKEN cDNA clone; expressed in E. coli with prenyl diphosphate synthase
T2 sequence (Q9C8E3 39-598): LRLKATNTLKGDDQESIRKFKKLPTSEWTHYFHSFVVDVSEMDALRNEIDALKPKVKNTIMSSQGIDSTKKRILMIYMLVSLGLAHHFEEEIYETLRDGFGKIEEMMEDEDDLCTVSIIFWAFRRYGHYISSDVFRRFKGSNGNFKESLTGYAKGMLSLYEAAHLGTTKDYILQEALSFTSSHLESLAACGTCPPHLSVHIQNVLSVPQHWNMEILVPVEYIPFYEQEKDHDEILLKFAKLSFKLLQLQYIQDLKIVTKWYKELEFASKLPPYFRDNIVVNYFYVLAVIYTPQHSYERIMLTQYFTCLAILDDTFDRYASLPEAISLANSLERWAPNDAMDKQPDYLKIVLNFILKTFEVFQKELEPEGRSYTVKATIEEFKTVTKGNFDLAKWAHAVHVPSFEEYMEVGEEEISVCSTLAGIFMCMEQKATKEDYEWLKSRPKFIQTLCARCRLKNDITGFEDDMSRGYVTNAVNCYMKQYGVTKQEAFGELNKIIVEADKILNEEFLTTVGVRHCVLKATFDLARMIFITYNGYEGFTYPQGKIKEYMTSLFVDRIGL

[3] = biological target: T3, TPS22 (Arabidopsis thaliana, UniProt Q9LQ27); assay: in vitro assay, SPME-GC-MS; type: biochemical; conditions: main product (E)-beta-farnesene
T3 construct: N-terminal 41 aa (transit peptide) removed; TOPO-pET102; E. coli; partially purified
T3 sequence (Q9LQ27 42-603): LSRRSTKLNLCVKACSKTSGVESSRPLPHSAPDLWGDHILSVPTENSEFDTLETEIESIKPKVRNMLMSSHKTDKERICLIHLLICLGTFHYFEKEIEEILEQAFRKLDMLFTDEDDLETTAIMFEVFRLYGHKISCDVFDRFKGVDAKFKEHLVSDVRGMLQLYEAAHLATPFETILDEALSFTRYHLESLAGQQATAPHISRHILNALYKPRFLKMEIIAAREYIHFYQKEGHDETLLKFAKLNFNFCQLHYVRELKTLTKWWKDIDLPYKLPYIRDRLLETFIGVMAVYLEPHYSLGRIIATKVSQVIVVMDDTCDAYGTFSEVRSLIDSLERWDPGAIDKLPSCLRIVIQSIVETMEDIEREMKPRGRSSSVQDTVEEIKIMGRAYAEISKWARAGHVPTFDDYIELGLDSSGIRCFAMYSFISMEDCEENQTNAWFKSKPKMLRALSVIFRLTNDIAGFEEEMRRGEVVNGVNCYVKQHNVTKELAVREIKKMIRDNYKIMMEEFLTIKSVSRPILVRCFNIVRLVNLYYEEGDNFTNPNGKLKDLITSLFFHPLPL

[4] = biological target: T4, TPS9 (Arabidopsis thaliana, UniProt Q8L7G4); assay: E. coli coexpression with (E,E)-FPP synthase, GC-MS; type: cell-based; conditions: trace nerolidol and (E)-beta-farnesene formed
T4 construct: gene TPS09; pET Duet; no truncation stated; RIKEN full-length cDNA clone; expressed in E. coli with prenyl diphosphate synthase
T4 sequence (Q8L7G4 1-607): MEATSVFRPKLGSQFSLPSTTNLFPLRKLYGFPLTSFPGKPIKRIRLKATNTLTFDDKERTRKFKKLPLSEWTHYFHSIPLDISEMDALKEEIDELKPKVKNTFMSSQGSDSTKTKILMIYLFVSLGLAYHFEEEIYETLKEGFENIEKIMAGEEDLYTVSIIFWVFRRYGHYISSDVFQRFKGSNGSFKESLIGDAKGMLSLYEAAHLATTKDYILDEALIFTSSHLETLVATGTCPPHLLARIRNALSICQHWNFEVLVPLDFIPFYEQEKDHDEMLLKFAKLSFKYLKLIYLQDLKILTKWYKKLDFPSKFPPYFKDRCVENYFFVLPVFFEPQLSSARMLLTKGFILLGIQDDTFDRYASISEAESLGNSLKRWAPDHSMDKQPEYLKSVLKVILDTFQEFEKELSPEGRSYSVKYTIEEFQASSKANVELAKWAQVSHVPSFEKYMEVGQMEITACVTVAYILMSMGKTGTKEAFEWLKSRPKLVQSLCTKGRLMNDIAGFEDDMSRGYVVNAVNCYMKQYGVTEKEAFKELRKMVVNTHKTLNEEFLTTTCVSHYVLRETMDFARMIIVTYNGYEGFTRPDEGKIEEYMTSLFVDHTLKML

[5] = biological target: T4, TPS9; assay: E. coli coexpression with GGPP synthase, GC-MS; type: cell-based; conditions: unidentified diterpene olefins formed
[6] = biological target: T5, TPS6c (Arabidopsis thaliana, UniProt Q84UU9); assay: E. coli coexpression with GGPP synthase, GC-MS; type: cell-based; conditions: product (3E,7E)-dolabella-3,7-dien-18-ol and an unknown diterpene
T5 construct: gene TPS06; N-terminal 53 aa removed; pET28a; expressed in E. coli with GGPP synthase
T5 sequence (Q84UU9 54-611): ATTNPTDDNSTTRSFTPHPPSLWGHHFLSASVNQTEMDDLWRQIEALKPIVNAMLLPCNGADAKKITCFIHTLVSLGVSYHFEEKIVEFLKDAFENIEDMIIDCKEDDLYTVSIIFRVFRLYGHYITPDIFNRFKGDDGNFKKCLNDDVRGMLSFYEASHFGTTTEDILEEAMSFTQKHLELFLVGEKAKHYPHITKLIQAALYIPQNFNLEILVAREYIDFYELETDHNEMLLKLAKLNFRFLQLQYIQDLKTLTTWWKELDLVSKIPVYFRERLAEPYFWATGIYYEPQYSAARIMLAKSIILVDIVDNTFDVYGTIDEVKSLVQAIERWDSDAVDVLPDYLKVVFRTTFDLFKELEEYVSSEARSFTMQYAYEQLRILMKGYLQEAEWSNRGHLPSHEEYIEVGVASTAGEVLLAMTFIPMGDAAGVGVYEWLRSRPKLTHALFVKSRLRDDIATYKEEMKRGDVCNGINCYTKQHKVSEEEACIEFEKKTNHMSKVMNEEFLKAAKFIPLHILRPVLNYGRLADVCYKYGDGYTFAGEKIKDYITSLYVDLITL

[7] = biological target: T6, TPS20c (Arabidopsis thaliana, UniProt Q9FI27); assay: radiochemical terpene synthase assay; type: biochemical; conditions: labelled compound ([1-3H]-GGPP); six concentrations, triplicate
T6 construct: gene TPS20; first 53 aa (plastid transit peptide) removed; N-terminal His-tag (pET28a NdeI/XhoI); E. coli; partially purified
T6 sequence (Q9FI27 54-575): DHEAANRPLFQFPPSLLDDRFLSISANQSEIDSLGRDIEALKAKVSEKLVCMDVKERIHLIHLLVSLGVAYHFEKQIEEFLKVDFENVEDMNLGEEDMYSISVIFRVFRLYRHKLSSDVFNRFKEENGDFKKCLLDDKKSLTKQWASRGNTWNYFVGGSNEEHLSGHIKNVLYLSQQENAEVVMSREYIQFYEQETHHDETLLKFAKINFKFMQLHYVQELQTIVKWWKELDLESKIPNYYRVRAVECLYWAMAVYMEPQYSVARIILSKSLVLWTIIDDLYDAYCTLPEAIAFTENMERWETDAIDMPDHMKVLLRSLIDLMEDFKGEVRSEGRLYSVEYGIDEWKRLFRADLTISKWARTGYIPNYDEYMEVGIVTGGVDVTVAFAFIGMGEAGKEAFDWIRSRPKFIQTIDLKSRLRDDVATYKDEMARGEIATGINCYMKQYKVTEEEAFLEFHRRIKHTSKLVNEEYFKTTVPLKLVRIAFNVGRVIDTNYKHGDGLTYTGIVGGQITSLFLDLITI
Source text: radiochemical terpene synthase assay on TPS20c

[8] = biological target: T7, TPS30 (Arabidopsis thaliana, UniProt Q9LH31); assay: E. coli coexpression with GGPP synthase, GC-MS; type: cell-based; conditions: two unknown diterpenes formed
T7 construct: N-terminal 48 aa removed; pET28a; expressed in E. coli with prenyl diphosphate synthase
T7 sequence (Q9LH31 49-604): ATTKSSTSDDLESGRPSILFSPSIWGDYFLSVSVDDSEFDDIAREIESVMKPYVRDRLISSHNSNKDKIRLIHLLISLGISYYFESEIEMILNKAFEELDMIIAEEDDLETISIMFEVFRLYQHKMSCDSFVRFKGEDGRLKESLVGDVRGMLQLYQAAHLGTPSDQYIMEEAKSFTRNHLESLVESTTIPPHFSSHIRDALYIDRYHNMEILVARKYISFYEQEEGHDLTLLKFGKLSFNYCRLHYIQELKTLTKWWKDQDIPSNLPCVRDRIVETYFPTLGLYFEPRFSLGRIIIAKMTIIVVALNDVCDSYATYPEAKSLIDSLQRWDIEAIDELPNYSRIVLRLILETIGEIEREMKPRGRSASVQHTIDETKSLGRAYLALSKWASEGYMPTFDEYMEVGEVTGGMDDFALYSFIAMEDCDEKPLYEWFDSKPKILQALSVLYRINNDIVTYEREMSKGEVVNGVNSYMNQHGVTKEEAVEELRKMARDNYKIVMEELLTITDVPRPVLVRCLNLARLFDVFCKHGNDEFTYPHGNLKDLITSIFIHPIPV

Structure (SMILES) | in vitro assay, SPME-GC-MS [1] | E. coli coexpression with (E,E)-FPP synthase, GC-MS [2] | in vitro assay, SPME-GC-MS [3] | E. coli coexpression with (E,E)-FPP synthase, GC-MS [4] | E. coli coexpression with GGPP synthase, GC-MS [5] | E. coli coexpression with GGPP synthase, GC-MS [6] | Km [7] | E. coli coexpression with GGPP synthase, GC-MS [8]
CC(C)=CCC/C(C)=C/CC/C(C)=C/COP(=O)(O)OP(=O)(O)O [(E,E)-FPP] | both proteins converted (E,E)-FPP into sesquiterpenes in vitro with (E)-β-farnesene as the main compound | trace amounts of α-humulene and (E)-β-farnesene being produced by TPS26 | both proteins converted (E,E)-FPP into sesquiterpenes in vitro with (E)-β-farnesene as the main compound | When co-expressed with (E,E)-FPP synthase, TPS9 produced trace amounts of nerolidol and (E)-β-farnesene | – | – | – | –
CC(C)=CCC/C(C)=C/CC/C(C)=C/CC/C(C)=C/COP(=O)(O)OP(=O)(O)O [GGPP] | – | – | – | – | TPS9 converted GGPP to one predominant diterpene olefin and eight minor diterpene products | TPS6c reacts with GGPP to produce dolabelladienol and an unknown diterpene | 6.29 ± 0.24 µM | protein encoded by gene TPS30 reacted with GGPP to form two unknown diterpenes
